Earlier results, collected in PMC11208559 (Scientific Reports, 2024).

Conditions: cited from earlier work

Compound: C=CCNC1=C2C[C@@H](C)C[C@H](OC)[C@H](O)[C@@H](C)/C=C(\C)[C@H](OC(N)=O)[C@@H](OC)/C=C\C=C(/C)C(=O)NC(=CC1=O)C2=O [17-AAG]
- tolerability in clinical trials: liver toxicity
